Assay results reported in ChEMBL document CHEMBL1157399, “Antioxidant 2-phenylbenzofurans and a coumestan from Lespedeza virgata” (J Nat Prod, 2008).

Experiments:
[1] = Antioxidant activity against 2,2'-azobis (2-amidinopropane) dihydrochloride-induced fluorescence decay at 1.5 uM assessed as trolox equivalents by ORAC-fluorescence assay; assay type: functional
[2] = Antioxidant activity assessed as oxygen radical scavenging activity by ORAC-fluorescence assay; assay type: functional
Kidney = assay: Inhibition of lipid peroxidation in renal failured rat kidney homogenate assessed as inhibition of malondialdehyde level by TBARS assay; assay type: functional, tissue-based
Plasma = assay: Inhibition of lipid peroxidation in renal failured rat plasma assessed as inhibition of malondialdehyde level by TBARS assay; assay type: functional, cell-free

| IC50 (Kidney) [µM] | IC50 (Plasma) [µM] | SMILES | Activity [1] | Activity [2] |
| --- | --- | --- | --- | --- |
| 3050 | 5540 | O=C1O[C@H]([C@@H](O)CO)C(O)=C1O [ASCORBIC ACID] | 165 | Dose-dependent effect |
| 450 | 190 | COc1c(CCC(C)(C)O)c(O)cc2oc(=O)c3c4cc(O)c(O)cc4oc3c12 [LESPEDEZACOUMESTAN] | 450 | Dose-dependent effect |
| 640 | 750 | COc1cc(OC)c(-c2oc3cc(O)c(O)cc3c2C=O)c(OC)c1 [LESPEDEZAVIRGATAL] | 189 | Dose-dependent effect |
| 160 | 180 | COc1ccc(O)c(-c2cc3ccc(O)c(OC)c3o2)c1OC [LESPEDEZAVIRGATOL] | 763 | Dose-dependent effect |
